# A melting point compilation (Tetko et al.; mined from patent text by program, amines drawn as free bases though some values may be those of a salt)
row,Structure (SMILES),melting point [°C]
1,CC/C=C\Cn1c(=S)sc2c(=O)[nH]c(N)nc21,> 320
2,Cc1ccccc1CN1CCN(C)CC1C1=NCCN1 (stereo not given),156 to 158
3,CCc1ccc(N2CCN(c3c(C)c(C)c4c(c3C)CC(C)(C)O4)CC2)cc1,152 to 155
4,COCCCS(=O)(=O)NC(=O)CCc1ccc(OC(C)C)cc1Oc1ncc(C(F)(F)F)cc1Cl,114 to 115
5,CC1(C)Oc2ccc(C#N)cc2C(OC2=CC(=O)CC2)C1(C)O (stereo not given),204 to 206
6,Oc1ccc2c(NCCN3CCOCC3)noc2c1,151 to 152
7,CCc1noc(-c2cn(-c3ccc(OC)c(OC)c3)cn2)n1,143
8,CCCCCCCCCCCCNC(=O)c1cc(Br)c(OCCNC(N)=O)c(-c2cccc(C(F)(F)F)c2)c1,122 to 125
9,CC(CN(C)C)OC(=O)c1ccc(NC(=O)CCn2cnc3c(=O)[nH]cnc32)cc1 (stereo not given),270 to 275
10,CCOC(=O)CNC(=O)c1ncc(O)cc1O,96 to 98
11,CN1CN(C)C(=S)N(c2ccccc2)C1,85 to 87
12,O=C(O)c1cc(C(=O)O)c2c(c1)C(C(=O)O)CCN2 (stereo not given),240 to 241
13,COC(=O)CCN1CCC(=C2c3sccc3CCn3ccnc32)CC1,108
14,COc1c(N2CC[C@@H](O)[C@H](C)C2)c(F)c(N)c2c(=O)c(C(=O)O)cn(C3CC3)c12 (relative stereo),240 to 244
15,CC1CC(=O)NN=C1c1ccc2c(c1)Oc1c[nH]nc1N2 (stereo not given),304 to 306
16,COC(=O)[C@@H]1COC(=S)N1C(=O)c1ccccc1,87.2 to 88
17,O=C(O)C1CCC(Nc2nccc(-n3nnc4c(I)cccc43)n2)CC1 (stereo not given),252 to 254
18,CN(C)C(=O)c1cc2ccc3c(c2cc1Cn1cncn1)C(C)(C)C(=O)O3,172 to 173
19,Cc1cc(OCc2ccccc2)cc(NC(=O)OC(C)C)c1C(=O)O,137 to 139
20,CC(=O)n1nc(-c2cccc([N+](=O)[O-])c2)n2nc(C)cc12,207 to 210
21,CNc1cc(F)c(C=O)cc1F,133 to 138
22,CCOC(=O)C(C#N)=CNNc1ccc(C(F)(F)F)cc1[N+](=O)[O-],163 to 164
23,[N-]=[N+]=NCC(=O)c1cn2c3c(cccc13)CCC2,92 to 93
24,COc1cc2c(cc1OC)C1CC(=O)C3CCCCC3N1CC2 (stereo not given),129 to 141
25,CC(=O)Nc1cc(-c2ccncc2)c[nH]c1=O,> 300

row,Structure (SMILES),melting point [°C]
1,CCN1CCCC1=NC(=O)Nc1c(C)cccc1C,120 to 122
2,CCCC(=O)N[C@H]1CC[C@H](CCN2CCN(c3nccc4c3CCO4)CC2)CC1,191
3,Clc1cc(OC[C@@H]2CCN2)cnc1Cl,59 to 60
4,CC(=O)Nc1ccc(OC(C)=O)c(C)c1C,155 to 156
5,CC(C)Oc1ccc(-n2c(CC(=O)O)c(C(=O)O)c3cc(Oc4ncccc4C(=O)O)ccc32)cc1,212 to 214
6,COc1cccc(-c2cncc(OC3SCC(OC(C)=O)C(OC(C)=O)C3OC(C)=O)c2)c1 (stereo not given),112 to 115
7,CC(C)(C)c1cc(-c2c[nH]c(=O)[nH]2)cc(C(C)(C)C)c1O,> 260
8,O=S1(=O)NCCNc2ccc(Oc3cccc(CO)c3)cc21,146
9,O=C1c2ccccc2S(=O)(=O)N1CSc1nnc(SCCN2CCOCC2)s1,129 to 131
10,COc1cc2c(cc1Nc1ncc(Cl)c(N[C@H]3[C@@H](C(N)=O)[C@@H]4C=C[C@H]3C4)n1)CCN(C[C@H](O)C(F)(F)F)CC2,120 to 126
11,COC(=O)c1ccc2oc(CCCCCc3cc4cc(C(=O)OC)ccc4o3)cc2c1,83 to 85
12,O=C(O)C(Cl)(Cl)Cc1ccccc1,173 to 176
13,CC(C)c1nc(C(N)=O)c2n1-c1ccc(Cl)cc1C(c1ccccc1Cl)=NC2,328 to 330
14,CCOC(=O)c1oc2ccc(Cl)cc2c1CN(C)CC(OC)OC,58 to 60
15,O=C1Nc2ccccc2N(C(=O)N2CCC(CCCCN3CCCC3)CC2)c2ncccc21,193 to 195
16,O=C(NC1(CO)NCC(O)C(O)C1O)c1ccccc1 (stereo not given),154 to 156
17,CCCCCCCCCCCCSCCOc1ccc(CCC(=O)O)cc1,68 to 69
18,CC(C)(C)OC(=O)Nc1c(C#CBr)c(C#N)nn1-c1c(Cl)cc(C(F)(F)F)cc1Cl,168 to 170
19,N#CC(C(=O)C(F)(F)F)c1cc(Cl)cc(Cl)c1Cl (stereo not given),160 to 163
20,Cc1ccc(S(=O)(=O)OCC2CCc3sc(C)nc3C2)cc1 (stereo not given),105 to 106
21,NC(=O)c1ccc(-c2ccc(-c3ccc(C(F)(F)F)cc3)o2)cc1,263 to 264
22,COc1cc(Cc2nc(NC(C)C)c3c(C)c(C#N)sc3n2)cc(OC)c1OC,143 to 147
23,CCOC(=O)COc1c(C(C)C)cc(C(O)(C(F)(F)F)C(F)(F)F)cc1C(C)C,91 to 93
24,CC(C)(C)OC(=O)N1CCN(c2ccc(OC[C@H]3CCn4cc([N+](=O)[O-])nc4O3)cc2)CC1,207 to 208
25,Cc1ccc(-c2ccc(Cl)c(C(=O)NCC34CC5CC(CC(C5)C3)C4)c2)nc1C(=O)O,180 to 185

# More lines, now with the values ahead:
row,melting point [°C],Structure (SMILES)
1,91 to 95,Cn1c(Cl)cnc1CN1C(=O)C2(COc3cc4c(cc32)OCCO4)c2ccccc21 (stereo not given)
2,320,O=C1Nc2cnc(N3CCN(c4ncccn4)CC3)nc2S/C1=C/c1ccc([N+](=O)[O-])cc1
3,103 to 104,Cc1nc2ncnn2c(N[C@@H](C)c2ccc(F)cc2)c1Cl
4,235 to 237,O=C(NCc1ccccn1)c1cc(N2CCN(Cc3ccc(F)cc3)C2=O)n[nH]1
5,161 to 162,CCN1C(=O)c2cccnc2N(C)c2nc(-c3ccc[nH]3)ccc21
6,122 to 124,Fc1ccccc1C1=NCc2cncnc2-c2ccc(Cl)cc21
7,207 to 209,O=C1COc2cc(SCc3ccc(O)cc3)ccc2N1
8,283 to 285,CC(=O)c1ccc(NC(=O)c2ccc(-c3ccccc3)cc2)cc1
9,124,COC(=O)Oc1ccc(-c2ccc(=O)n(Cc3ccc(Cl)cc3F)c2)cc1
10,104 to 105,COC(=O)c1cccc(-c2ccc3c(c2)NCC3)c1
11,223,O=C(O)c1ccc2c(c1)S(=O)c1ccccc1O2 (stereo not given)
12,> 280,N#CC1=C(C2CCN(C(=O)c3ccccc3)CC2)Nc2n[nH]cc2C1c1cccc(C#N)c1Br (stereo not given)
13,162 to 164,COc1ccc(CN2Cc3cncn3C(c3ccc(-c4ccsc4)cc3)C2=O)cc1 (stereo not given)
14,159 to 160,Cc1nnc(-c2ccc3occ(-c4ccc5sccc5c4)c3c2)o1
15,> 300,COCCn1cc2c(C3C(=O)Nc4ccc(Br)cc43)nc(Cl)nc2n1 (stereo not given)
16,46 to 50,O=C(Cl)c1cnoc1-c1ccc(Cl)cc1Cl
17,67 to 68,CCCNc1ncnc2c1ncn2CCCN1CCN(c2ccccc2)CC1
18,145 to 148,Cc1cc(C)c2cccc(OCc3c(C)ccc(N(C)C(=O)CN)c3C)c2n1
19,224 to 225,Nc1cccc(C=Cc2ccc(O)cc2)n1
20,200 to 202,COc1ccc2c(c1)Cc1cc(CC(=O)O)ccc1-2
21,222 to 224,CSCCCn1cc(C2=C(c3cn(C)c4ccccc34)C(=O)NC2=O)c2ccccc21
22,149 to 150,COCOc1cc(Cl)ccc1-c1cc(-c2cccc(N(C(=O)OC(C)(C)C)C(=O)[C@@H](N)Cc3c[nH]cn3)c2)c(C#N)c(NC(=O)c2ccco2)n1
23,177 to 178,Cc1nc(-c2ccccc2)nc(-c2cccc([N+](=O)[O-])c2)c1CO
24,209 to 216,O=C(NC1CCN(CCc2ccc([N+](=O)[O-])cc2)CC1)c1ccccc1
25,73 to 75,Nc1ccc(OCc2ccc(Cl)cc2)cc1F

row,melting point [°C],Structure (SMILES)
1,196 to 201,CCOC(=O)c1cn(C2CN(C(c3ccccc3)c3ccccc3)C2)c2cc(F)c(F)cc2c1=O
2,198 to 203,Cc1ccc2c(c1)C(c1ccc(OCC(=O)O)cc1)C(=O)O2 (stereo not given)
3,196 to 197,c1ccc(N2CCN(Cc3n[nH]c4ccccc34)CC2)cc1
4,> 300,Cc1nn(-c2ccccn2)c2ncc(C(=O)NC3CCCCC3)c(O)c12
5,76 to 77,Cc1c(C)n2c3c(cccc13)CCc1ccccc1-2
6,178 to 180,CC(C)(C)C(=O)c1c[nH]c2ncc(-c3cccc(NC4CCCC4O)c3)nc12 (stereo not given)
7,113 to 114,O=C1CCCC(O)=C1C(=O)Nc1ccc(Cl)cc1
8,120 to 121,N#Cc1cc(Cl)nc(SCc2ccc3ccccc3c2)n1
9,101 to 103,CC(=O)N(C)C1CCC(=O)c2ccccc21 (stereo not given)
10,56.5 to 59,CCOc1ccccc1OCC1(O)CCN(Cc2ccccc2)C1 (stereo not given)
11,178 to 180,CCCCc1cn(CCCC)c(=O)n1Cc1ccc(-c2cccnc2-c2nnn[nH]2)cc1
12,69 to 70,Cc1cc(C)n2nc(SCc3ccccc3)nc2c1
13,218 to 219,Cc1c(C(=O)Nc2ccc(N3CCNCC3)c(C#N)c2)cnn1-c1ccc(F)cc1
14,45 to 48,CCOC(=O)N(c1cccc(C(F)(F)F)c1)c1ccccc1[N+](=O)[O-]
15,125 to 128,CC(=O)Nc1ccccc1N1CCc2ccccc21
16,210,Cc1oc(-c2ccc(S(C)(=O)=O)cc2)c(Oc2ccc(F)cc2F)c(=O)c1Cl
17,193,OC1CSC(Oc2cncc(-c3ncccc3Cl)c2)C(O)C1O (stereo not given)
18,178 to 181,COC(=O)c1cc2cc(-c3ccc4ccc(Cl)cc4n3)ccc2o1
19,164 to 165,NC1=NN(c2cccc(Cl)c2)C(c2ccccc2)C1 (stereo not given)
20,78 to 79,O=C(OCc1ccc(F)cc1)c1cccc(C(=O)OCc2ccc(F)cc2)c1
21,115 to 116,CC(=O)Nc1ccc(-c2nnn(-c3ccc(C(F)(F)F)cc3F)c2N)cc1
22,220 to 222,Cc1ccccc1NS(=O)(=O)c1cc(S(=O)(=O)Nc2ccccc2C)c2ccccc2c1O
23,212 to 214,Cc1cc(C)c(NC(=O)N(Cc2ccccc2)CC2(c3ccccc3)CCCC2)c(C)c1
24,190 to 196,O=C(CN1CCC(Oc2ccccc2)CC1)Nc1ccc2[nH]c(=O)oc2c1
25,175,c1ccc(CN2CCN(c3ccnc4[nH]ccc34)CC2)cc1
